Test results taken from BindingDB's records for doi:10.1021/jm990590f (Dupont Pharmaceuticals, 2000).

Key:
[1] = target: Corticotropin-releasing factor receptor 1 (Rattus norvegicus) (UniProt P35353); assay: Compound was tested for the inhibition of binding of the radioligand, [125 I-Tyr0]-CRF to rat cerebral cortex membrane
[2] = target: Corticotropin-releasing factor receptor 1 (Rattus norvegicus) (UniProt P35353); assay: Inhibition of corticotropin releasing factor receptor mediated increase in cAMP level using rat cortical homogenates in vitro.

Corticotropin-releasing factor receptor 1 (Rattus norvegicus), sequence (P35353 whole entry, looked up): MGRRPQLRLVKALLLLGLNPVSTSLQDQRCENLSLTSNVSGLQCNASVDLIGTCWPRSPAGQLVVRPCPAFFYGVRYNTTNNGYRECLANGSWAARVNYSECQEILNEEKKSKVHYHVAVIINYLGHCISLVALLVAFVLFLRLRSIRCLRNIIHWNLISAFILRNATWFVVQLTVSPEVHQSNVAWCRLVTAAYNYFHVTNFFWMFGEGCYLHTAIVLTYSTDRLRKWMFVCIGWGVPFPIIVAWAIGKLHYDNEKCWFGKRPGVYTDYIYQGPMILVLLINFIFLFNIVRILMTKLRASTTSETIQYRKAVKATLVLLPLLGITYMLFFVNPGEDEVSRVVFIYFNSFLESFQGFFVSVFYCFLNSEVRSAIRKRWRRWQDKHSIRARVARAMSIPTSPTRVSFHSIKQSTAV

| Ki [1] [nM] | IC50 [2] [nM] | SMILES |
| --- | --- | --- |
| 63 | – | CCN(c1nc(C)cc(N2CCOCC2)n1)c1ccc(C(C)C)cc1Br [(2-Bromo-4-isopropyl-phenyl)-ethyl-(4-methyl-6-morpholin-4-yl-pyrimidin-2-yl)-amine] |
| – | 79 | COCC(COC)n1nnc2c(Nc3c(C)cc(C)cc3Cl)nc(C)cc21 [DMP-695] |
